Experimental findings from patent US10570179B2, “Substituted urea depsipeptide analogs as activators of the CLPP endopeptidase” (priority 2016, dated 2020) are described below.

In brackets after ≈: the same amount, converted by molar mass. Numbered stars: 1 amine (or outer) side, 2 acyl side, 3 side chain; on linkers, the order of the positions; unused ones are H or OH. Bridge positions count the residues as written; N and C are the ends. Square brackets hold non-standard residues; d marks the D form. Peptide text beside a SMILES is read from it. * marks the point of attachment. Phe(3-Me) = Cc1cccc(C[C@H](N)C(=O)O)c1; Pro(4S-Me) = C[C@@H]1CN[C@H](C(=O)O)C1; Hyp = O=C(O)[C@@H]1C[C@@H](O)CN1; aThr = C[C@H](O)[C@H](N)C(=O)O; Pip = O=C(O)[C@@H]1CCCCN1; CO = O=C([*:1])[*:2]; X2 = Fc1cc(N*)ccc1Cl

One assay deals with T1, S. aureus ClpP (Sa-ClpP) (Staphylococcus aureus, UniProt Q2G036).
T1 construct: made in house; host or cells: E. coli BL21 (DE3)
The experiment in a line: Casein-BODIPY digestion assay (ClpP activation). In kind it is biochemical.

Another assay concerns S. aureus ΔClpP. The experiment in a line: Minimal inhibitory concentration, microbroth dilution. In kind it is cell-based, Staphylococcus aureus. Conditions: MIC; ClpP inactivated. The essentials:
(§1)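 Growth inhibition was scored visually after overnight aerobic culture at 37 °C in CLSI-style microdilution plates. Inocula contained about 10^5 cfu/mL, and compound concentrations descended in twofold steps from 200 μM.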

For a further assay, the system named is E. faecails. The description is as above. Conditions: Enterococcus faecalis; MIC; read-out: Minimal Inhibitory Concentrations (μM) E. faecails. In kind it is cell-based. The essentials: as §1
A further assay concerns MRSA NRS70. Described as above. In kind it is cell-based. Conditions: Staphylococcus aureus; MIC; read-out: Minimal Inhibitory Concentrations (μM) MRSA NRS70. The essentials: as §1
A further assay relates to S. aureus ATCC 29213. Described as above. In kind it is cell-based. The following applies: Staphylococcus aureus, ATCC29213; MIC; read-out: Minimal Inhibitory Concentrations (μM) S. aureus ATCC 29213. The gist of the method: as §1
A further assay concerns S. aureus USA 300. The assay is described as above. In kind it is cell-based. The following applies: Staphylococcus aureus, USA300; MIC; read-out: Minimal Inhibitory Concentrations (μM) S. aureus USA 300. The gist of the method:
as §1

T1 sequence (Q2G036 whole entry): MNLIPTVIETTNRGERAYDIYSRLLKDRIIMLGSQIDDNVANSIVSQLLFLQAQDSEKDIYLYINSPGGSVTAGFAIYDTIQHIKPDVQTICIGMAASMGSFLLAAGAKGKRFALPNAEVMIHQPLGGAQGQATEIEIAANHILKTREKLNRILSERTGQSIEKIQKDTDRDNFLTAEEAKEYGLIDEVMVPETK

Take `Cc1cccc(C[C@H](NC(=O)Nc2ccc(Cl)c(F)c2)C(=O)N[C@@H]2C(=O)N3C[C@H](O)C[C@H]3C(=O)N3CCCC[C@H]3C(=O)N[C@@H](C)C(=O)N3C[C@@H](C)C[C@H]3C(=O)O[C@H]2C)c1` [Compound 77, (S)-2-(3-(4-CHLORO-3-FLUOROPHENYL)UREIDO)-N-((2S,6S,8AS,14AS,16R,20S,21S,23AS)-16-HYDROXY-2,6,21-TRIMETHYL-5,8,14,19,23-PENTAOXOOCTADECAHYDRO-1H,5H,14H,19H-PYRIDO[2,1-I]DIPYRROLO[2,1-C:2′,1′-L][1]OXA[4,7,10,13]TETRAAZACYCLOHEXADECIN-20-YL)-3-(M-TOLYL)PROPANAMIDE] ({X2-CO}-[Phe(3-Me)][aThr][Hyp][Pip]A[Pro(4S-Me)]; ester 2-C): on S. aureus ClpP (Sa-ClpP), it took 450 ± 200 nM to reach a half-maximal effect (EC50). The “Minimal Inhibitory Concentrations (μM) S. aureus ΔClpP” value with S. aureus ΔClpP was found to be 5 µM. Besides, the MIC in the assay on E. faecails was 1.25 µM (≈ 1.05 µg/mL); in the assay with MRSA NRS70, 0.625 µM (≈ 0.525 µg/mL); with S. aureus ATCC 29213, 0.625 µM (≈ 0.525 µg/mL); with S. aureus USA 300, 1.25 µM (≈ 1.05 µg/mL).
